US11034670B2, “Poly-ADP ribose polymerase (PARP) inhibitors” (Mitobridge, Inc., priority 2016, dated 2021)

Test system: kidney injury (ischemia-reperfusion)
Conditions: rat; for blood urea nitrogen (BUN) / plasma creatinine: 15 mg/kg IV after ischemia-reperfusion, 24 hours after reperfusion, vs IR-vehicle; for kidney injury: dosed IV after ischemia-reperfusion

| SMILES | blood urea nitrogen (BUN) | plasma creatinine | kidney injury |
| --- | --- | --- | --- |
| C[C@H]1CN(c2ccc(C#N)cn2)CCN1C(=O)CCc1nc2cccc(F)c2c(=O)[nH]1 [Ex. 30, 6-[(3S)-4-[3-(5-fluoro-4-oxo-3H-quinazolin-2-yl)propanoyl]-3-methyl-piperazin-1-yl]pyridine-3-carbonitrile] | significantly reduced | significantly reduced | reduced kidney injury |
| C[C@H]1CN(c2ccc(C#N)cn2)CCN1C(=O)CCc1nc2ccc(F)cc2c(=O)[nH]1 [Ex. 29, 6-[(3S)-4-[3-(6-fluoro-4-oxo-3H-quinazolin-2-yl)propanoyl]-3-methyl-piperazin-1-yl]pyridine-3-carbonitrile] | significantly reduced | significantly reduced | reduced kidney injury |
